In the supplement of paper PMC7796163:
± gives the uncertainty stated by the source.

Key:
Experiment in all cases: CYP enzyme activity (probe substrate metabolite formation) fold change vs solvent control; higher = stronger induction of CYP activity
Conditions in all cases: HepaRG
CYP2D6 = CYP2D6 (UniProt P10635)
Description: (§1)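 Differentiated HepaRG cells were treated with 1, 5 or 10 µM of each PAH (0.5% DMSO) for 12, 24 or 48 h, then incubated for 3 h at 37 °C with a cocktail of isoform-specific CYP substrates (phenacetin for CYP1A2, bupropion for CYP2B6, amodiaquine for CYP2C8, tolbutamide for CYP2C9, mephenytoin for CYP2C19, propafenone for CYP2D6, atorvastatin for CYP3A4). Metabolite formation was quantified by LC-MS as a measure of CYP activity and reported as fold change over solvent control (mean ± SD, n=3). Values below the LLOQ were set to half the LLOQ.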

CYP3A4 = CYP3A4 (UniProt P08684)
Description: as §1

CYP2B6 = biological target: T1, CYP2B6 (UniProt P20813)
T1 sequence (whole entry): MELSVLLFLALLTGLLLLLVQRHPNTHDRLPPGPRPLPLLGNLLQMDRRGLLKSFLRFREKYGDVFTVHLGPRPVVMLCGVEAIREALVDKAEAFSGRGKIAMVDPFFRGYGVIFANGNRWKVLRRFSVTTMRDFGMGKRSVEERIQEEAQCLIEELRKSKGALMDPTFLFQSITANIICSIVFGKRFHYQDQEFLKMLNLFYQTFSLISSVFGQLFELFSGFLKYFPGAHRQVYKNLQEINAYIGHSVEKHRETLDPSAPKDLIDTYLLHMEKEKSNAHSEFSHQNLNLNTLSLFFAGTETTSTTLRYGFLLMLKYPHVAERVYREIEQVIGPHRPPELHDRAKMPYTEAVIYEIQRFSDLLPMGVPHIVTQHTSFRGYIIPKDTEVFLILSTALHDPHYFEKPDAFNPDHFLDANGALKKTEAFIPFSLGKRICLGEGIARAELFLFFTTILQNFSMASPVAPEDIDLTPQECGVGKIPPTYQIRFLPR
Description: as §1

CYP2C9 = CYP2C9 (UniProt P11712)
Description: as §1

CYP2C19 = CYP2C19 (UniProt P33261)
Description: as §1

CYP2C8 = biological target: T2, CYP2C8 (UniProt P10632)
T2 sequence (whole entry): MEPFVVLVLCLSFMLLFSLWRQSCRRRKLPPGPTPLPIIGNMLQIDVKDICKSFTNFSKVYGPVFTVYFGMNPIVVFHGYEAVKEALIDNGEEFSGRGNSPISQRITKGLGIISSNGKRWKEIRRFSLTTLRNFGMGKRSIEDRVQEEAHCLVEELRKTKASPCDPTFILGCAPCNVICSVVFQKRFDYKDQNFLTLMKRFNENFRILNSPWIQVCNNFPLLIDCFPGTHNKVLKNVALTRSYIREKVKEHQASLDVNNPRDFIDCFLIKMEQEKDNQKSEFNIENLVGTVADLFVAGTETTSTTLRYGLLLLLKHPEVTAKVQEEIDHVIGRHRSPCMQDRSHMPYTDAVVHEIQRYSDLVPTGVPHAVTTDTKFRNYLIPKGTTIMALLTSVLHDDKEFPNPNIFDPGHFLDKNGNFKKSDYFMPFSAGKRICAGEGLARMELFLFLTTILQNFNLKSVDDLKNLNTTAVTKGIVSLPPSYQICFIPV
Description: as §1

CYP1A2 = biological target: T3, CYP1A2 (UniProt P05177)
T3 sequence (whole entry): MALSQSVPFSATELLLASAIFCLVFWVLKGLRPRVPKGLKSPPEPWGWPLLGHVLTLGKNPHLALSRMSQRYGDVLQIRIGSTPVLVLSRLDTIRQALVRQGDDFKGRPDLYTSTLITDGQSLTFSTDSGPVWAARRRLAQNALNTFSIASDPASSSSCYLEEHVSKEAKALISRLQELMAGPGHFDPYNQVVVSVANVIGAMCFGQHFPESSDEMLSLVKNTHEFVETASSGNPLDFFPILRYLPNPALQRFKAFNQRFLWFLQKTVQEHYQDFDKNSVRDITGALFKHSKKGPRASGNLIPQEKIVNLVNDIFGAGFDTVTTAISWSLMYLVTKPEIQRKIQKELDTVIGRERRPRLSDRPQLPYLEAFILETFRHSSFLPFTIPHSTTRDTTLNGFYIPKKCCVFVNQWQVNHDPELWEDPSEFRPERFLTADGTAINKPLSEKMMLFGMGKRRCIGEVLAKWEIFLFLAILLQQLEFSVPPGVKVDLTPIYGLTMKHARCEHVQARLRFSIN
Description: as §1

Sequence of CYP3A4 (P08684 whole entry): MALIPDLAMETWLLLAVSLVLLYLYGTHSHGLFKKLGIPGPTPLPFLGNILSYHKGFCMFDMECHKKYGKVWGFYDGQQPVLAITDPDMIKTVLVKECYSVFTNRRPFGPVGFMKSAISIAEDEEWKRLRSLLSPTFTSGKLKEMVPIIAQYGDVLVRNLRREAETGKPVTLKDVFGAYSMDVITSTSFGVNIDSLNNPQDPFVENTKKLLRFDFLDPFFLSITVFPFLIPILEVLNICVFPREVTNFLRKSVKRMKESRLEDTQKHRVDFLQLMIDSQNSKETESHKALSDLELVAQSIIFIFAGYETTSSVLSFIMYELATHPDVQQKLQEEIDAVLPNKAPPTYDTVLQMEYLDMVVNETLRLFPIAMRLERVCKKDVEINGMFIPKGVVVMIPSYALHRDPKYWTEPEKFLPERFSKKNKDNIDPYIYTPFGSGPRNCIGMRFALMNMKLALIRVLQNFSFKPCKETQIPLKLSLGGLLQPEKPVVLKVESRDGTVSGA
Sequence of CYP2D6 (P10635 whole entry, canonical isoform): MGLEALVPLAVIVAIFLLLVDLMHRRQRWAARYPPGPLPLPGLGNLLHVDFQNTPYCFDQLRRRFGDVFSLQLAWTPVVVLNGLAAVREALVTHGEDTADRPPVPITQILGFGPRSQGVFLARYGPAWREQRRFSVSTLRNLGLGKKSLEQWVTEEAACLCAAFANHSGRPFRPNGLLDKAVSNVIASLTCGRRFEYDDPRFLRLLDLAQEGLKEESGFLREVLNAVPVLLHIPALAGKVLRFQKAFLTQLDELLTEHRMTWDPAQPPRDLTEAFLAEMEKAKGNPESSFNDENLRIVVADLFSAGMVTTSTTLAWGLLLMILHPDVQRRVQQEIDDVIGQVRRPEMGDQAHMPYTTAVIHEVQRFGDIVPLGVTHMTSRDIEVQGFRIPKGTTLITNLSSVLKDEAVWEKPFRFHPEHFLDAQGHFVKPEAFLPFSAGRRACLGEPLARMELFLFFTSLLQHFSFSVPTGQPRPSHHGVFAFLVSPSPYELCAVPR
Sequence of CYP2C9 (P11712 whole entry): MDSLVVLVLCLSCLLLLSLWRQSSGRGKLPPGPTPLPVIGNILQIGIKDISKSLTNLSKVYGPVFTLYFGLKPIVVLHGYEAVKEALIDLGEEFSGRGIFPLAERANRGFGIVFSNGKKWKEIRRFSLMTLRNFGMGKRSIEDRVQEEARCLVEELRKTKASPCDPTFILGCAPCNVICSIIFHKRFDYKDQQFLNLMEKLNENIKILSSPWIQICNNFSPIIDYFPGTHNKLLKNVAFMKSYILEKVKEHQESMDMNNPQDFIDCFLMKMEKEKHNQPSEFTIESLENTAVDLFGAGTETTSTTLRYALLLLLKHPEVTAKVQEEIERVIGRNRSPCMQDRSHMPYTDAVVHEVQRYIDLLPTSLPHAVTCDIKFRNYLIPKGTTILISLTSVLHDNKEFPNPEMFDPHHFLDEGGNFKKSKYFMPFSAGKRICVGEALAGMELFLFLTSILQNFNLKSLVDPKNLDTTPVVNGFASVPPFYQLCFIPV
Sequence of CYP2C19 (P33261 whole entry): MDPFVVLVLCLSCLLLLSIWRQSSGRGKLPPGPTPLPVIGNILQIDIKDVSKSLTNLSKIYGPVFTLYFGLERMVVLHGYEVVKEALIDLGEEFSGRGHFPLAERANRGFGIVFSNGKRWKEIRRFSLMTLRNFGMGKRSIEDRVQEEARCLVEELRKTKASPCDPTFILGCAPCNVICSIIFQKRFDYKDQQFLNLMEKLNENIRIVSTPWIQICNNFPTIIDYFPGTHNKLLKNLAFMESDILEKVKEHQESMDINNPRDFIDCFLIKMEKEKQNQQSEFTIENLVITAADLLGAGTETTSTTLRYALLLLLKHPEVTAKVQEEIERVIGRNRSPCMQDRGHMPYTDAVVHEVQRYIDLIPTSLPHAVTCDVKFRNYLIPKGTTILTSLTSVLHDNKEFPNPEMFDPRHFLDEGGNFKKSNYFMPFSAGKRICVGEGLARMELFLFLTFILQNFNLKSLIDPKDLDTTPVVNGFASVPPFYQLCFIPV

c1ccc2cc3c(ccc4ccccc43)cc2c1 [benzo[a]anthracene]
CYP enzyme activity
Conditions	CYP1A2	CYP2B6	CYP2C8	CYP2C9	CYP2C19	CYP2D6	CYP3A4
1 µM, treatment time 12 h	1.41	0.781	0.978	0.88	0.754	0.865	0.717
1 µM, treatment time 24 h	1.01	0.901	0.978	1	0.826	0.833	0.662
1 µM, treatment time 48 h	0.817	0.683	1.01	0.927	0.862	0.696	0.702
5 µM, treatment time 12 h	5.62	1.1	0.953	0.995	0.94	1.66	0.809
5 µM, treatment time 24 h	4.68	1.45	0.973	1.02	0.934	1.15	0.844
5 µM, treatment time 48 h	1.98	0.896	0.898	0.989	1.003	0.774	0.754
10 µM, treatment time 12 h	9.59	1.11	0.992	0.949	0.934	2.55	0.907
10 µM, treatment time 24 h	9.37	1.63	0.875	1.02	0.925	1.41	0.855
10 µM, treatment time 48 h	3.86	0.97	0.792	0.849	0.882	0.712	0.702

c1ccc2c(c1)cc1ccc3cccc4ccc2c1c34 [benzo[a]pyrene]
CYP enzyme activity
Conditions	CYP1A2	CYP2B6	CYP2C8	CYP2C9	CYP2C19	CYP2D6	CYP3A4
1 µM, treatment time 12 h	2.02	0.982	0.886	0.945	0.898	1.11	0.849
1 µM, treatment time 24 h	1.3	1.14	0.925	1	0.895	0.883	0.812
1 µM, treatment time 48 h	0.816	0.753	0.895	0.896	0.85	0.691	0.734
5 µM, treatment time 12 h	7.75	1.22	0.671	0.85	0.908	2.43	1.04
5 µM, treatment time 24 h	4.55	1.61	0.774	1.03	0.847	1.07	0.834
5 µM, treatment time 48 h	1.04	0.977	0.686	0.773	0.855	0.598	0.678
10 µM, treatment time 12 h	5.63	0.881	0.464	0.67	0.761	2.24	1.05
10 µM, treatment time 24 h	7.76	1.52	0.66	0.872	0.835	1.34	0.762
10 µM, treatment time 48 h	1.24	0.954	0.415	0.654	0.661	0.51	0.599

c1ccc2c(c1)-c1cccc3c1c-2cc1ccccc13 [benzo[b]fluoranthene]
CYP enzyme activity
Conditions	CYP1A2	CYP2B6	CYP2C8	CYP2C9	CYP2C19	CYP2D6	CYP3A4
1 µM, treatment time 12 h	2.68	1.04	0.95	0.95	0.955	1.24	0.857
1 µM, treatment time 24 h	1.78	1.23	0.906	0.907	0.885	0.924	0.751
1 µM, treatment time 48 h	1.75	0.832	0.908	0.891	0.984	0.763	0.732
5 µM, treatment time 12 h	3.81	1.29	0.951	0.978	1.05	1.38	0.925
5 µM, treatment time 24 h	9.11	2.08	0.817	0.951	0.951	1.52	0.823
5 µM, treatment time 48 h	5.4	1.33	0.717	0.82	0.976	0.934	0.732
10 µM, treatment time 12 h	0.947	1.21	0.929	0.939	0.995	1.19	0.875
10 µM, treatment time 24 h	13.2	1.71	0.758	0.842	0.876	1.87	0.723
10 µM, treatment time 48 h	7.06	1.4	0.444	0.602	0.667	0.823	0.495

c1ccc2c(c1)ccc1ccc3ccccc3c12 [benzo[c]phenanthrene]
CYP enzyme activity
Conditions	CYP1A2	CYP2B6	CYP2C8	CYP2C9	CYP2C19	CYP2D6	CYP3A4
1 µM, treatment time 12 h	1.2	1.02	0.945	1	0.916	0.94	0.867
1 µM, treatment time 24 h	1.09	1.04	0.9596	0.961	0.911	0.773	0.843
1 µM, treatment time 48 h	0.925	0.921	0.962	0.922	1.04	0.772	0.834
5 µM, treatment time 12 h	1.34	1.31	0.947	1.02	1.04	0.992	0.926
5 µM, treatment time 24 h	1.28	1.81	1.04	1.15	1.09	1.05	1.002
5 µM, treatment time 48 h	1.28	2.27	1.09	1.28	1.19	1.05	1.13
10 µM, treatment time 12 h	1.5	1.27	0.958	1.01	1.03	1.04	0.849
10 µM, treatment time 24 h	1.5	2.02	1.13	1.103	1.03	1.13	0.999
10 µM, treatment time 48 h	1.46	2.87	1.08	1.21	1.19	1.08	1.2
